Source: article PMC3331898 (2012)

Biological target: T1, retinoic acid receptor-related orphan receptor γ (RORγ) (Homo sapiens, UniProt P51449)
T1 sequence (P51449 265-507 limits assumed): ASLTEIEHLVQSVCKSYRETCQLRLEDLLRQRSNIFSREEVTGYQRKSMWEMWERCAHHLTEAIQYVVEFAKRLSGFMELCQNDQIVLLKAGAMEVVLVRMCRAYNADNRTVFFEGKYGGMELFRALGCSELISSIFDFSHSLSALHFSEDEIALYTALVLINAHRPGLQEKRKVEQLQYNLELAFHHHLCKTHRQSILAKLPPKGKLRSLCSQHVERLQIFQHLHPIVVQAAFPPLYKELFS
Type: binding

Compound: C[C@H]1O[C@@H](O[C@H]2[C@@H](O)C[C@H](O[C@H]3[C@@H](O)C[C@H](O[C@H]4CC[C@@]5(C)[C@H](CC[C@@H]6[C@@H]5C[C@@H](O)[C@]5(C)[C@@H](C7=CC(=O)OC7)CC[C@]65O)C4)O[C@@H]3C)O[C@@H]2C)C[C@H](O)[C@@H]1O [digoxin]
- differential HDX mass spectrometry: HDX) mass spectrometry analysis of the RORγ LBD in the presence and absence of digoxin, T1317, or SR2211
